Data from ChEMBL document CHEMBL1157539, “Thousands of chemical starting points for antimalarial lead identification” (Nature, 2010).
Several values for one entry are separate records, joined by “and”; a condition that tells them apart may be missing. Equal values may be shown once.

The compounds below were run on Plasmodium falciparum (assay: GSK_TCMDC: Inhibition of Plasmodium falciparum 3D7 in whole erythrocytes, using parasite LDH activity as an index of growth.). Details: not given.
Format: functional, organism-based

Q: `Cc1[nH]c(C)c(-c2ccc(Oc3ccc(OC(F)(F)F)cc3)cc2)c(=O)c1Br` was tested. Which XC50 did it give?
A: 563 nM and 112 nM

Same assay, conditions: Plasmodium falciparum, 3D7

Q: `COC(=O)c1ccc(CC(C)NCC(O)c2cccc(C(F)(F)F)c2)c(Cl)c1` (stereo not given) was tested. Which XC50 did it give?
A: 854 nM

Q: Which XC50 does the source give for `Cn1cncc1-c1ccc2ncnc(Nc3ccc4c(cnn4Cc4ccccc4)c3)c2c1` here?
A: 180 nM

Q: Which XC50 does the source give for `CCN(CC)CCCN(CCCN(CC)CC)c1cc(C)nc(Nc2ccc3cc(Br)ccc3c2)n1` here?
A: 567 nM

Q: Which XC50 does the source give for `O=C(/C=C/c1ccc(CNCCN2CCOCC2)cc1)NCCc1ccccc1` here?
A: 864 nM

Q: How did the XC50 turn out when `CCC(C)OC(=O)C1=C(C)NC2=C(C(=O)CC(c3ccc(OC)c(OC)c3)C2)C1c1ccc(O)cc1` (stereo not given) was run?
A: 218 nM

Q: For `Cc1cc(NC(=O)NCCN2CCC(NS(=O)(=O)c3cccc(Br)c3)C2)c2ccccc2n1` (stereo not given), which XC50 is on record?
A: 606 nM

Q: With `Cc1ccnc(NC(=O)c2cc(-c3cccc([N+](=O)[O-])c3)nc3onc(C)c23)c1` as the compound, how does the XC50 read?
A: 888 nM

Q: How did the XC50 turn out when `c1ccc(CSC2=NNC(c3ccccn3)S2)cc1` (stereo not given) was run?
A: 1480 nM

Q: How did the XC50 turn out when `CCCC[C@H](NC(=O)O[C@H](COc1ccc(OCc2ccccc2)cc1)C(C)(C)C)C(=O)C(=O)Nc1cc[nH]n1` was run?
A: 991 nM

Q: With `CC(Nc1nncc(-c2cccc(F)c2)n1)c1ccc(F)cc1` (stereo not given) as the compound, how does the XC50 read?
A: 791 nM

Q: How did the XC50 turn out when `COc1cccc2cc(C(=O)N[C@@H](CC(C)C)C(=O)N[C@H](C=NN3CCOC3=O)Cc3ccccc3)oc12` was run?
A: 686 nM

Q: Which XC50 does the source give for `FC(F)(F)Oc1cccc(CNc2noc(-c3sccc3Br)n2)c1` here?
A: 875 nM

Q: With `Cc1cc(C(=O)NC2CCN(CC3(c4ccc(Cl)cc4)CCC3)CC2)on1` as the compound, how does the XC50 read?
A: 92 nM

Q: For `CC=CC(=O)N1CCN(c2nccc(-c3ccc(C(C)(C)C)cc3)n2)CC1`, which XC50 is on record?
A: 1080 nM

Q: For `COc1cc(C(=O)N2C(c3nccs3)C(C(=O)N(OC)C(C)c3ccccc3)CC2(CC(C)C)C(=O)OC(C)(C)C)ccc1C(C)(C)C` (stereo not given), which XC50 is on record?
A: 1070 nM

Q: With `ON=C1CCc2cc(-c3nc(-c4ccc(OCCN5CCCCC5)cc4)[nH]c3-c3ccncc3)ccc21` as the compound, how does the XC50 read?
A: 804 nM

Q: With `CC(C)CNCc1ccc(-c2ccc(CNC3CCN(Cc4ccccc4)CC3)cc2)cc1` as the compound, how does the XC50 read?
A: 558 nM

Q: With `FC(F)(F)c1ccc2[nH]c(-c3ccc(-c4ccc(CNCC5CCCO5)cc4)s3)nc2c1` (stereo not given) as the compound, how does the XC50 read?
A: 158 nM

Q: `Nc1nc(N)c2c3c(ccc2n1)CCC3` was tested. Which XC50 did it give?
A: 928 nM

Q: `CCS(=O)(=O)c1ccc(OC)c(Nc2nccc(-c3c(-c4cccc(NC(=O)c5c(F)cccc5F)c4)nn4ncccc34)n2)c1` was tested. Which XC50 did it give?
A: 1030 nM

Q: For `CCOc1cc(C(=O)N[C@@H](Cc2ccccc2)[C@H](O)CNCc2cc(OC)cc(OC)c2)cc(N2CCCS2(=O)=O)c1`, which XC50 is on record?
A: 748 nM

Q: How did the XC50 turn out when `Cc1ccc(-c2nc3cc(NC(=O)c4ccc([N+](=O)[O-])o4)ccc3o2)cc1Cl` was run?
A: 160 nM

Q: `COc1ccc(C2CCN(C#N)C2)cc1OC1CCCC1` (stereo not given) was tested. Which XC50 did it give?
A: 228 nM

Q: `COc1ccc2nc3cc(Cl)ccc3c(NCCNCC(O)CO)c2n1` (stereo not given) was tested. Which XC50 did it give?
A: 152 nM

Q: Which XC50 does the source give for `CC(=O)C1(c2ccccc2)CCN(CCC2(c3ccc(Cl)c(Cl)c3)CN(C(=O)Nc3cc(F)cc(F)c3)CCO2)CC1` (stereo not given) here?
A: 1480 nM

Q: `N=C(N)NN=CC(=O)Nc1ccc(C(F)(F)F)cc1` was tested. Which XC50 did it give?
A: 932 nM

Q: With `CN1CCCN(Cc2ccc(-c3ccc(NC(=O)c4ccc(Cl)cc4)cc3)cc2)CC1` as the compound, how does the XC50 read?
A: 895 nM

Q: For `O=C(Nc1cccc(-c2cccc(-c3ccc(F)cc3)n2)c1)c1ccc([N+](=O)[O-])o1`, which XC50 is on record?
A: 361 nM

Q: `O=C(CCCC(=O)Nc1ccc(C2=NCCN2)cc1)Nc1ccc(C2=NCCN2)cc1` was tested. Which XC50 did it give?
A: 106 nM

Q: With `CN1CCCN(Cc2ccc(-c3cccc(NC(=O)c4ccc(F)cc4)c3)cc2)CC1` as the compound, how does the XC50 read?
A: 1090 nM

Q: For `CCC(=O)N(c1ccccc1)C1CCN(CCCC(NC(=O)c2cc(C(F)(F)F)cc(C(F)(F)F)c2)c2ccc(Cl)c(Cl)c2)CC1` (stereo not given), which XC50 is on record?
A: 803 nM

Q: With `Cc1ccc2nc(C)cc(N/N=C/c3cccc([N+](=O)[O-])c3)c2c1` as the compound, how does the XC50 read?
A: 876 nM

Q: How did the XC50 turn out when `NC1=NC(c2ccccc2)(c2ccccc2)C(=O)N1Cc1ccc(-c2ccncc2)cc1` was run?
A: 772 nM

Q: How did the XC50 turn out when `O=C(NCCN1CCC(c2ccncc2)CC1)c1ccc(Nc2nccc(Nc3ccc(Oc4ccccc4)cc3)n2)cc1` was run?
A: 724 nM

Q: With `CCCCCCCc1c(C)nc2cccc(OC)c2c1O` as the compound, how does the XC50 read?
A: 1130 nM

Q: With `C(=N\Nc1nccc2sc(-c3ccccc3)cc12)/c1cccnc1` as the compound, how does the XC50 read?
A: 821 nM

Q: Which XC50 does the source give for `O=C(NC1CCN(Cc2ccccc2)CC1)c1ccc2c(=O)n(Cc3ccc(Cl)cc3)c(=S)[nH]c2c1` here?
A: 998 nM

Q: With `CC[C@H](NC(=O)c1c(N)c(-c2sccc2Cl)nc2ccccc12)c1ccccc1` as the compound, how does the XC50 read?
A: 912 nM

Q: For `Cc1ccc(C(CC(=O)Nc2nccs2)c2ccc(OC(C)C)cc2)cc1` (stereo not given), which XC50 is on record?
A: 479 nM

Q: For `CCN(c1ccc(O)c(CN2CCCCC2)c1)c1ccc([N+](=O)[O-])cn1`, which XC50 is on record?
A: 886 nM

Q: `C[C@@H](Oc1cc(-n2cnc3ccc(NC(=O)CCN4CCCCC4)cc32)sc1C(N)=O)c1ccccc1Cl` was tested. Which XC50 did it give?
A: 991 nM

Q: With `O=C(Nc1cccnc1)c1ccc(-c2cc3ccncc3cc2OC2CCNCC2)s1` as the compound, how does the XC50 read?
A: 884 nM

Q: Which XC50 does the source give for `O=C(/C=C/c1ccc(Cl)c(Cl)c1)N1CCC(CN2CCC(Cc3cc4ccccc4[nH]3)CC2)CC1` here?
A: 630 nM

Q: `CCOc1ccc(/C=C/C(=O)Nc2cccc3c2CCN(C)C3)cc1` was tested. Which XC50 did it give?
A: 1110 nM

Q: `FC(F)(F)c1cnc(Sc2nnc(-c3ccco3)o2)c(Cl)c1` was tested. Which XC50 did it give?
A: 791 nM

Q: Which XC50 does the source give for `O=C(/C=C/c1cccc(Cl)c1)N1CCC(C(O)CN2CCC3(CC2)CN(C(=O)/C=C/c2cccc(Cl)c2)c2ccccc23)CC1` (stereo not given) here?
A: 892 nM

Q: Which XC50 does the source give for `NC1=NC(CCc2ccccc2)N(c2ccc(Cl)cc2)C(N)=N1` (stereo not given) here?
A: 38 nM

Q: Which XC50 does the source give for `CCc1cc(N2CCN(c3ccccc3F)CC2)nc(SCc2ccc(C(=O)NC3CC3)o2)n1` here?
A: 892 nM

Q: For `COc1cc(C(=O)NC2CCN(Cc3ccccc3)CC2)ccc1-c1nc2c(Cl)cc(C(F)(F)F)cc2[nH]1`, which XC50 is on record?
A: 670 nM

Q: `O=C(/C=C/c1ccc(C(F)(F)F)cc1)NCCCCCN1CCCN(C(=O)Nc2cccc(Cl)c2)CC1` was tested. Which XC50 did it give?
A: 992 nM

Q: With `CC(C)(C)CCN1CCC(NC(=O)c2ccc(-c3cccc(C(F)(F)F)c3)s2)CC1` as the compound, how does the XC50 read?
A: 755 nM

Q: For `Cc1ccc2nc(-c3ccc(C(=O)NC4CCN(Cc5ccccc5)CC4)cc3)[nH]c2c1C`, which XC50 is on record?
A: 729 nM

Q: With `CCNc1cc(C(=O)N[C@@H](Cc2ccccc2)[C@H](O)CNC(C)(C)CCCC(C)C)cc(N2CCCC2=O)c1` as the compound, how does the XC50 read?
A: 827 nM

Q: How did the XC50 turn out when `OC(COc1ccccc1-c1nc2ccccc2o1)CN1CCCN(CCc2ccccc2)CC1` (stereo not given) was run?
A: 758 nM

Q: How did the XC50 turn out when `NC1=NC2(CCCCC2)N(OCCCCCCCCNc2nc(N)nc(N)n2)C(N)=N1` was run?
A: 59.8 nM

Q: For `CC(Oc1ccc(Cl)cc1)C(=O)N(C)C1CCN(CCCCCNC(=O)/C=C/c2ccc(Cl)c(Cl)c2)CC1` (stereo not given), which XC50 is on record?
A: 959 nM

Q: Which XC50 does the source give for `COc1ccc(Nc2ncc3c(-c4cccc(NC(=O)Cc5cccnc5)c4)c[nH]c3n2)cc1OC` here?
A: 718 nM

Q: With `CN1C(=CC(=O)NC(=O)c2ccccc2)C(C)(C)c2ccccc21` as the compound, how does the XC50 read?
A: 637 nM

Q: Which XC50 does the source give for `CN(CCCN(C)c1cc(NC(=O)c2ccc(F)cc2)ccn1)Cc1cccc(F)c1` here?
A: 1220 nM

Q: How did the XC50 turn out when `CC(C)(C)c1ccc(CNC(=O)/C=C/c2ccc(CNC3CCNCC3)cc2)cc1` was run?
A: 1090 nM

Q: For `CCNc1cc(C)nc(Nc2ccc(NS(=O)(=O)c3cc(OC)ccc3OC)cc2)n1`, which XC50 is on record?
A: 853 nM

Q: How did the XC50 turn out when `COc1ccc(CCN(C)CCOc2ccc(NC(=O)COc3ccc4sc5ccccc5c(=O)c4c3)cc2)cc1OC` was run?
A: 1100 nM

Q: With `CCCc1ccc(NC(=O)c2cccc(CN3CCCN(Cc4cccc(C#N)c4)CC3)c2)cc1` as the compound, how does the XC50 read?
A: 976 nM

Q: Which XC50 does the source give for `O=C(Nc1cc(F)cc(-c2cccnc2)c1)c1ccc2c(=O)n(Cc3ccccc3)cnc2c1` here?
A: 1330 nM

Q: For `CC(=O)Nc1ccc(OCCCCN(Cc2ccccc2C(F)(F)F)c2ccc(C#N)c(C(F)(F)F)c2)cc1`, which XC50 is on record?
A: 1390 nM

Q: For `COc1cccc(Nc2nc(C)cc(NC3CCCC3)n2)c1`, which XC50 is on record?
A: 1110 nM

Q: How did the XC50 turn out when `CS(=O)(=O)NCCCNCc1ccc(-c2cccc(-c3nc4cc(C(F)(F)F)ccc4[nH]3)c2)cc1` was run?
A: 854 nM

Q: For `Cc1ccccc1Oc1nc2ccccc2nc1SCC(=O)NC(C)C`, which XC50 is on record?
A: 197 nM

Q: Which XC50 does the source give for `COc1cc(N)cc2sc(N)nc12` here?
A: 251 nM
